Assay results reported in US9499537B2, “Antiviral pyrrolopyridine derivatives and method for preparing the same” (KOREA RESEARCH INSTITUTE OF CHEMICAL TECHNOLOGY, priority 2011, dated 2016).

System: MT-4 cells
Experiment: Cytotoxicity test in MT-4 cells (MTT method)
Format: cell-based
Conditions: human
Procedure: In order to look into the HIV-1 inhibition effects of the compound of the present invention, an in vitro test for HIV-1 inhibition effects was carried out as follows according to a known method (H. Tanaka et al., J. Med. Chem., 1991, 34, 349). MT-4 cells were used as host cells, and the degree of the compound of the present invention inhibiting the cytotoxicity of the virus-infected MT-4 cells was investigated.
First, MT-4 cells were diffused at a concentration of 1×10^4 cell/well to a culture medium, and HIV-1 was inoculated so that the concentration was 500 TCI50 (concentration at which 50% of the cell is infected)/well. Immediately after the inoculation, the cell dispersion was transferred in 100 μL each to a flat microtiter plate in which the sample of the compound of the present invention was placed. The sample was incubated for approximately for 4 to 5 days at […], and the virus suppression effect was determined using an MTT method. In addition, the cytotoxicity was also determined by measuring the survivability of the experimentally virus-infected cells using an MTT method. As a comparative compound, azidothymidine (AZT) and raltegravir were used.

Row | Structure (SMILES) | CC60 (μM) ** : concentration at 50% cell damage with respect to MT-4 cells [µM]
1 | Cc1nc2c(c(C)c(C)n2CCO)c(-c2ccc(Cl)cc2)c1C(OC(C)(C)C)C(=O)O (centres unmarked) [Example 24, 2-Tert-butoxy-2-(4-(4-chlorophenyl)-1-(2-hydroxyethyl)-2,3,6-trimethyl-1H-pyrrolo[2,3-b]pyridin-5-yl)acetic acid] | 75.04
2 | Cc1nc2c(c(C)c(C)n2Cc2cncs2)c(-c2ccc(Cl)cc2)c1[C@H](OC(C)(C)C)C(=O)O [Example 63, (S)-2-(Tert-butoxy)-2-(4-(4-chlorophenyl)-2,3,6-trimethyl-1-(thiazol-5-ylmethyl)-1H-pyrrolo[2,3-b]pyridin-5-yl)acetic acid] | 38.3
3 | CCn1c(C)c(C)c2c(-c3ccccc3)c(C(OC(C)(C)C)C(=O)O)c(C)nc21 (centres unmarked) [Example 37, 2-Tert-butoxy-2-(1-ethyl-2,3,6-trimethyl-4-phenyl-1H-pyrrolo[2,3-b]pyridin-5-yl)acetic acid] | 17
4 | Cc1nc2c(c(C)c(C)n2Cc2ccccc2C#N)c(-c2ccc(Cl)cc2)c1C(OC(C)(C)C)C(=O)O (centres unmarked) [Example 11, 2-Tert-butoxy-2-(4-(4-chlorophenyl)-1-(2-cyanobenzyl)-2,3,6-trimethyl-1H-pyrrolo[2,3-b]pyridin-5-yl)acetic acid] | 15.19
5 | Cc1nc2c(c(C)c(C)n2Cc2nccs2)c(-c2ccc(Cl)cc2)c1[C@H](OC(C)(C)C)C(=O)O [Example 64, (S)-2-(Tert-butoxy)-2-(4-(4-chlorophenyl)-2,3,6-trimethyl-1-(thiazol-2-ylmethyl)-1H-pyrrolo[2,3-b]pyridin-5-yl)acetic acid] | 48.57
6 | CCn1c(C)c(C)c2c(-c3ccc(F)cc3)c(C(OC(C)(C)C)C(=O)O)c(C)nc21 (centres unmarked) [Example 39, 2-Tert-butoxy-2-(1-ethyl-4-(4-fluorophenyl)-2,3,6-trimethyl-1H-pyrrolo[2,3-b]pyridin-5-yl)acetic acid] | 78.47
7 | Cc1nc2c(c(C)c(C)n2Cc2ccc(F)nc2)c(-c2ccc(Cl)cc2)c1[C@H](OC(C)(C)C)C(=O)O [Example 67, (S)-2-(Tert-butoxy)-2-(4-(4-chlorophenyl)-1-((6-fluoropyridin-3-yl)methyl)-2,3,6-trimethyl-1H-pyrrolo[2,3-b]pyridin-5-yl)acetic acid] | 13.65
8 | Cc1nc2c(c(C)c(C)n2Cc2cocn2)c(-c2ccc(Cl)cc2)c1[C@H](OC(C)(C)C)C(=O)O [Example 56, (S)-2-(Tert-butoxy)-2-(4-(4-chlorophenyl)-2,3,6-trimethyl-1-(oxazol-4-ylmethyl)-1H-pyrrolo[2,3-b]pyridin-5-yl)acetic acid] | 24.56
9 | Cc1nc2c(c(C)c(C)n2Cc2cnccn2)c(-c2ccc(Cl)cc2)c1[C@H](OC(C)(C)C)C(=O)O [Example 77, (S)-2-(Tert-butoxy)-2-(4-(4-chlorophenyl)-2,3,6-trimethyl-1-(pyrazin-2-ylmethyl)-1H-pyrrolo[2,3-b]pyridin-5-yl)acetic acid] | 38.86
10 | Cc1nc2c(c(C)c(C)n2Cc2ccco2)c(-c2ccc(Cl)cc2)c1[C@H](OC(C)(C)C)C(=O)O [Example 44, (S)-2-(Tert-butoxy)-2-(4-(4-chlorophenyl)-1-(furan-2-ylmethyl)-2,3,6-trimethyl-1H-pyrrolo[2,3-b]pyridin-5-yl)acetic acid] | 18.06
11 | Cc1nc2c(c(C)c(C)n2Cc2ccoc2)c(-c2ccc(Cl)cc2)c1[C@H](OC(C)(C)C)C(=O)O [Example 62, (S)-2-(Tert-butoxy)-2-(4-(4-chlorophenyl)-1-(furan-3-ylmethyl)-2,3,6-trimethyl-1H-pyrrolo[2,3-b]pyridin-5-yl)acetic acid] | 15.34
